Assay results published in paper PMC10349193 (CPT: Pharmacometrics & Systems Pharmacology, 2023).
Values after ≈ are worked out from the molar mass of the structure shown. Values joined by “and” are separate entries in the source; they are usually repeats but may differ in a detail not shown here. Equal entries are not always repeated. Where two headings read alike, the source gives them in different places.

How the values were obtained:
P-gp [1] = target: T1, P-gp (Homo sapiens, UniProt P08183); assay: P-gp substrate assessment in Caco-2 monolayers with verapamil; type: in vitro ADME; conditions: Caco-2, with verapamil (concentration not stated), read-out: Efflux ratio P app,BL→AP/AP→BL, with inhibitor
T1 construct: endogenous in cells; host or cells: Caco-2

P-gp [2] = test system: T2, P-gp; assay: as above; type: in vitro ADME; conditions: human, Caco-2, with verapamil (concentration not stated); for Papp A→B at 2 h, 10 μM: read-out: P app,AP→BL, with inhibitor; for Papp B→A at 2 h, 10 μM: read-out: P app,BL→AP, with inhibitor
T2 construct: endogenous in cells; host or cells: Caco-2

[3] = Apparent permeability in Caco-2 monolayers; type: in vitro ADME; conditions: human, Caco‐2, 10 μM; for Papp A→B at 2 h, 10 μM: read-out: P app,AP→BL, without inhibitor; for Papp B→A at 2 h, 10 μM: read-out: P app,BL→AP, without inhibitor; for efflux ratio at 2 h, 10 μM: read-out: Efflux ratio P app,BL→AP/AP→BL, without inhibitor
[4] = model input; ref SimCYP library version 19; cited from earlier work
[5] = model input; ref SimCYP library version 19; cited from earlier work; remark: listed apart in the source
CYP3A4 [6] = conditions: cited from earlier work
CYP1A2 = test system: CYP1A2; set-up: method as in SimCYP library version 19; conditions: ref SimCYP library version 19, cited from earlier work; for CYP1A2 CLint: recombinant enzyme kinetics
CYP3A4 [7] = test system: CYP3A4; set-up: method as in SimCYP library version 19; conditions: ref SimCYP library version 19, cited from earlier work
[8] = model input; ref SimCYP library version 19; cited from earlier work; remark: listed apart in the source
[9] = ref SimCYP library version 19, cited from earlier work; for Volume [Vsac] / kin / kout: single adjusting compartment; for Vss: minimal PBPK model
CYP2C8 = test system: CYP2C8; set-up: method as in SimCYP library version 19; conditions: ref SimCYP library version 19, cited from earlier work
CYP2C9 = conditions: ref SimCYP library version 19, cited from earlier work
CYP3A4 [10] = conditions: ref NCT01468714, cited from earlier work; for Increase of PB‐201 systemic exposure on co‐administration with ketoconazole: clinical DDI study, strong CYP3A4 inhibitor
[11] = set-up: method as in SimCYP library version 19; conditions: ref SimCYP library version 19, cited from earlier work
CYP3A5 = test system: CYP3A5; set-up: method as in SimCYP library version 19; conditions: ref SimCYP library version 19, cited from earlier work
CYP2B6 [12] = test system: CYP2B6; set-up: method as in SimCYP library version 19; conditions: ref SimCYP library version 19, cited from earlier work
CYP2B6 [13] = conditions: ref SimCYP library version 19, cited from earlier work
CYP2A6 = conditions: ref SimCYP library version 19, cited from earlier work
proximal tubular cells = conditions: Mech KiM; ref SimCYP library version 19; cited from earlier work
SLC47As = conditions: apical, ref SimCYP library version 19, cited from earlier work
SLC22A8 = conditions: basal, ref SimCYP library version 19, cited from earlier work
CYP2D6 = conditions: ref SimCYP library version 19, cited from earlier work
SLC22A2 = conditions: basal, ref SimCYP library version 19, cited from earlier work
ABCC4 = conditions: apical, ref SimCYP library version 19, cited from earlier work
Caco-2 = conditions: ref SimCYP library version 19, cited from earlier work
CYP2C19 = conditions: ref SimCYP library version 19, cited from earlier work
[14] = set-up: method as in earlier work; conditions: bile duct‐cannulated rats; cited from earlier work
[15] = Allometric scaling of clearance; conditions: rats, dogs, and monkeys; clearance (intravenous), body weight, plasma unbound fraction
OATP1B1 = test system: OATP1B1; set-up: method as in unpublished; conditions: ref unpublished; cited from earlier work
OATP1B3 = test system: OATP1B3; set-up: method as in unpublished; conditions: ref unpublished; cited from earlier work
[16] = cited from earlier work
CYP3A4 [17] = assay: Clinical DDI study of PB-201 with ketoconazole (NCT01468714); type: in vivo, human; conditions: inferred from clinical DDI study with strong CYP3A inhibitor
[18] = Clinical pharmacokinetic studies of PB-201; type: in vivo; conditions: humans
[19] = Physicochemical properties
[20] = cited from earlier work; remark: listed apart in the source
MDCK II = conditions: fluvoxamine file with reference compounds; ref SimCYP library version 19; cited from earlier work
[21] = competitive inhibition, unit inferred

T1 sequence (P08183 whole entry): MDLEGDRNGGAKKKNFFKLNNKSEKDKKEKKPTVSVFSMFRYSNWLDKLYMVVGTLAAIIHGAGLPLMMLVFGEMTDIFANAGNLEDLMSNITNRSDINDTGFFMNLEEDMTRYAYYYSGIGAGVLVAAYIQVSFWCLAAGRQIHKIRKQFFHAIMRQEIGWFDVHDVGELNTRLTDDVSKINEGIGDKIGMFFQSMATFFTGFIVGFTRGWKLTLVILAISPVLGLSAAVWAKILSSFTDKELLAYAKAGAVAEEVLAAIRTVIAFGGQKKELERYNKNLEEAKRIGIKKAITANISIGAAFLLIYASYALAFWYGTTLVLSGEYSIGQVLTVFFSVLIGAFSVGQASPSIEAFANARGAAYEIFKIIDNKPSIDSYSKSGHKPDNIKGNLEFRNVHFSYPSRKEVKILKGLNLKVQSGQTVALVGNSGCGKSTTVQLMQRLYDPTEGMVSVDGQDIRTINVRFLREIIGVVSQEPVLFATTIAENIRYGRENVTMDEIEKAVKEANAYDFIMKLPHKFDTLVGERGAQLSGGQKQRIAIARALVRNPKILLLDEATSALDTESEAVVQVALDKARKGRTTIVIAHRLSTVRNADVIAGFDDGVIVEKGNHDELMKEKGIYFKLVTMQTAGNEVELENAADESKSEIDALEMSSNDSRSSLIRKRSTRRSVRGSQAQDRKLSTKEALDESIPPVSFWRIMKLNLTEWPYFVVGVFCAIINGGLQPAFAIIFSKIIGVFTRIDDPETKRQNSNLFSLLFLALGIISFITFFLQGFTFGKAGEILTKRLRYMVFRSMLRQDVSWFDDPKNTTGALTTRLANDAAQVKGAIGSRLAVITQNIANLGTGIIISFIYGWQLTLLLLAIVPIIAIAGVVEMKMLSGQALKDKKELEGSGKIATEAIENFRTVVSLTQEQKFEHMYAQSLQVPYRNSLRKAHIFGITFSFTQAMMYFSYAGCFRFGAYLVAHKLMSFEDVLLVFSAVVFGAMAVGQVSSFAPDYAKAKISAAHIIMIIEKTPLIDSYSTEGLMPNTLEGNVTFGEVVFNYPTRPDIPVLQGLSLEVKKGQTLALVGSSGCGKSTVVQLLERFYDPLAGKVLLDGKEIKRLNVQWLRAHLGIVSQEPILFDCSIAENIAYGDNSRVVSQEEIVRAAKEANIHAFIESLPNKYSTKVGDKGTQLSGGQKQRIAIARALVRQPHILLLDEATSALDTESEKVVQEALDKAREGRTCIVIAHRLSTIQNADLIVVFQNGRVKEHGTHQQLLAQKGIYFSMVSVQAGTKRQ

## CC(=O)O[C@H]1C(=O)[C@@]2(C)[C@H]([C@H](OC(=O)c3ccccc3)[C@]3(O)C[C@H](OC(=O)[C@H](O)[C@@H](NC(=O)c4ccccc4)c4ccccc4)C(C)=C1C3(C)C)[C@]1(OC(C)=O)CO[C@@H]1C[C@@H]2O [Taxol]
P-gp [1]
  efflux ratio at 2 h, 10 μM: 1.09
P-gp [2]
  Papp A→B at 2 h, 10 μM: 1.17 ×10⁻⁶ cm/s
  Papp B→A at 2 h, 10 μM: 1.28 ×10⁻⁶ cm/s
[3]
  Papp A→B at 2 h, 10 μM: 0.0798 ×10⁻⁶ cm/s
  Papp B→A at 2 h, 10 μM: 0.56 ×10⁻⁶ cm/s
  efflux ratio at 2 h, 10 μM: 7.02

## CCC(C)n1ncn(-c2ccc(N3CCN(c4ccc(OCC5COC(Cn6cncn6)(c6ccc(Cl)cc6Cl)O5)cc4)CC3)cc2)c1=O (stereo not shown) [Itraconazole]
[4]
  Lag time: 0/30 h
  QGut: 18.32/12
  fa: 0.59/30
  fuGut: 0.016
  ka: 0.6/30 1/h
[5]
  Log P: 4.47
CYP3A4 [6]; ref SimCYP library version 19
  fumic (CYP3A4 inhibition): 1
CYP1A2
  CYP1A2 CLint: 1/1 μL/min/pmol
  fumic (CYP1A2 metabolism): 1/1
CYP3A4 [7]; recombinant enzyme kinetics
  CYP3A4 Vmax: 0.065 pmol/min/pmol of isoform
CYP3A4 [7]
  fumic (CYP3A4 metabolism): 1
[8]
  Fraction unbound in plasma: 0.016
[9]
  Volume [Vsac]: 1e-05 L/kg
  kin: 0 h⁻¹

## CC(=O)N1CCN(c2ccc(OCC3COC(Cn4ccnc4)(c4ccc(Cl)cc4Cl)O3)cc2)CC1 (stereo not shown) [Ketoconazole]
CYP2C8; [21]
  Ki: […]
CYP2C8
  fumic (CYP2C8 inhibition): […]
[4]
  Lag time: […]
  fa: […]
  fuGut: […]
  ka: […]
[5]
  PSA: 69.06 A^2
CYP3A4 [6]
  Ki: […]
  fumic (CYP3A4 inhibition): […]
CYP2C9; read-out: CYP2C9 Ki, competitive inhibition
  Ki: […]
CYP2C9
  fumic (CYP2C9 inhibition): […]
CYP3A4 [10]
  Increase of PB‐201 systemic exposure on co‐administration with ketoconazole: […]
[11]; in vivo clearance
  CLpo: […]
[11]
  CLR: […]
[8]
  Fraction unbound in plasma: 0.029
CYP3A5; [21]
  Ki: […]
CYP3A5
  fumic (CYP3A5 inhibition): […]
[9]
  Vss: 0.345 L/kg

## CC(C)(C)NCC(O)COc1cccc2c1CC(O)C(O)C2 (stereo not shown) [Nadolol]
P-gp [1]
  efflux ratio at 2 h, 10 μM: 0.554
P-gp [2]
  Papp A→B at 2 h, 10 μM: 0.657 ×10⁻⁶ cm/s
  Papp B→A at 2 h, 10 μM: 0.364 ×10⁻⁶ cm/s
[3]
  Papp A→B at 2 h, 10 μM: 0.721 ×10⁻⁶ cm/s
  Papp B→A at 2 h, 10 μM: 0.634 ×10⁻⁶ cm/s
  efflux ratio at 2 h, 10 μM: 0.88

## O=C1Nc2ccc(Cl)cc2[C@@](C#CC2CC2)(C(F)(F)F)O1 [Efavirenz]
[4]
  Lag time: […]
  fa: […]
  fuGut: […]
  ka: […]
[5]
  Log P: 4.02
  PSA: 38.33 A^2
CYP2B6 [12]; induction
  CYP2B6 Indmax: […]
CYP2B6 [12]; induction, read-out: CYP2B6 IndC50
  EC50: […]
CYP2B6 [12]
  fuinc (CYP2B6 induction): […]
CYP1A2
  CYP1A2 CLint: […]
  fumic (CYP1A2 metabolism): […]
CYP2B6 [13]; recombinant enzyme kinetics
  CYP2B6 CLint: 1.36 μL/min/pmol of isoform
CYP2B6 [13]
  fumic (CYP2B6 metabolism): […]
CYP3A4 [7]; recombinant enzyme kinetics
  CYP3A4 CLint: […]
CYP3A4 [7]
  fumic (CYP3A4 metabolism): […]
[8]
  Fraction unbound in plasma: […]
CYP2A6; recombinant enzyme kinetics
  CYP2A6 CLint: […]
CYP2A6
  fumic (CYP2A6 metabolism): […]
[9]
  Volume [Vsac]: […]
  kin: […]
  kout: […]

## CN/C(=N/CCSCc1nc[nH]c1C)NC#N [Cimetidine]
[4]
  Lag time: 0.15/28 h
  fa: 0.92/30
  fuGut: 1
  ka: 0.7/18 1/h
Proximal tubular cells
  CLPD,apical: 2.61E-05 mL/min/million proximal tubular cells
  CLPD,basal: 2.61E-05 mL/min/million proximal tubular cells
  fuKidney cell: 1
  fuUrine: 1
SLC47As
  SLC47As Jmax: 135.5
SLC47As; read-out: SLC47As Km
  Km: 7.7 µM
SLC22A8
  SLC22A8 Jmax: 1232
SLC22A8; read-out: SLC22A8 Km
  Km: 162 µM
CYP2D6; read-out: CYP2D6 Ki, competitive inhibition
  Ki: 3500 nM
CYP2D6
  fumic (CYP2D6 inhibition): 1
SLC22A2
  SLC22A2 Jmax: 2170
SLC22A2; read-out: SLC22A2 Km
  Km: 72.6 µM
[11]
  CLR: 31.6 L/h
ABCC4
  ABCC4 Jmax: 216
ABCC4; read-out: ABCC4 Km
  Km: 18.2 µM
[8]
  Fraction unbound in plasma: 0.8
Caco-2; Caco-2 pH 6.5: pH 7.4, references of fluconazole file, unit not given
  Reference compound Papp: 3.06

## OC(Cn1cncn1)(Cn1cncn1)c1ccc(F)cc1F [Fluconazole]
CYP2C19; read-out: CYP2C19 Ki, competitive inhibition
  Ki: 2000 nM
CYP2C19
  fumic (CYP2C19 inhibition): 1
[11]
  CLR: 0.86 L/h
[9]
  Vss: 0.76 L/kg
  Volume [Vsac]: 1e-05 L/kg
Caco-2; pH 6.5: pH 7.4, Passive&Active, fluconazole file
  Caco-2 Papp: 29.8 10^-6 cm/s

## Cc1cnc(NC(=O)c2cc(Oc3cnc(C(=O)N(C)C)nc3)c3cc(C)oc3c2)cn1 [PB‐201, N,N‐dimethyl‐5‐(2‐methyl‐6‐((5‐methylpyrazin‐2‐yl)‐carbamoyl) benzofuran‐4‐yloxy)pyrimidine‐2‐carboxamide]
[14]
  Contribution of biliary excretion to elimination: about 2.3%
[15]
  Allometric exponent (b): about 0.74
OATP1B1
  OATP1B1 substrate assessment: not a specific substrate
OATP1B3
  OATP1B3 substrate assessment: not a specific substrate
[16]; clinical studies, exposure‐response relationship, ref unpublished
  Overall total incidence of hypoglycemia: about 3%
[16]; dose range of 3–640 mg
  Safety and tolerability in clinical studies: safe and tolerable
CYP3A4 [17]
  f m of CYP2C9 in vivo: less than 25%
[18]; human, urine, oral, from a clinical trial, source Measured, read-out: Typical renal clearance (converted)
  CL renal: 1.65 mL/min
[18]; assuming bioavailability 68% and body weight ~76.89 kg
  Observed distribution volume: 1.983 L/kg
CYP3A4 [10]
  Increase of PB‐201 systemic exposure on co‐administration with ketoconazole: about 26.4%
CYP3A4 [10]; humans, fasted state, from clinical DDI study
  Contribution (f m) of CYP3A4 to PB‐201 elimination in vivo: ~ 26.4% and 26.4%
physchem
  solubility: ~3 µg/mL (≈ 6.94 µM)
[19]
  logP: 1.38
  pKa: 10.4
[20]; fed (NCT01513928) vs fasted (NCT01272804), same dose, ref NCT01513928
  Food effect on systemic exposure: significantly increase
[20]; humans, 100 mg, ref NCT01044537
  Volume of distribution based on the terminal phase: ~ 254.4 L
[20]; humans, after multiple doses, ref NCT01272804
  Time (median) to reach maximum plasma concentration: 2 to 3 h
[20]; humans, ref NCT01272804
  Unchanged drug in the urine: < 1%

## COCCc1ccc(OCC(O)CNC(C)C)cc1 (stereo not shown) [Metoprolol]
MDCK II
  MDCK II Papp: 29.6 10^-6 cm/s
Caco-2; pH 7.4: pH 7.4, Passive&Active, erythromycin file with reference compounds
  Caco-2 Papp: 145 10^-6 cm/s
